This passage reports Activity results from ChEMBL document CHEMBL1157312, “DNA methyl transferase inhibiting halogenated monoterpenes from the Madagascar red marine alga Portieria hornemannii” (J Nat Prod, 2006).

In this experiment the target is DNA (cytosine-5)-methyltransferase 1 (Homo sapiens) (UniProt P26358). As to the kind of experiment: Inhibition of DNMT1 assessed as drug level causing inhibition by SPA.
Sequence of DNA (cytosine-5)-methyltransferase 1 (Homo sapiens) (P26358 whole entry): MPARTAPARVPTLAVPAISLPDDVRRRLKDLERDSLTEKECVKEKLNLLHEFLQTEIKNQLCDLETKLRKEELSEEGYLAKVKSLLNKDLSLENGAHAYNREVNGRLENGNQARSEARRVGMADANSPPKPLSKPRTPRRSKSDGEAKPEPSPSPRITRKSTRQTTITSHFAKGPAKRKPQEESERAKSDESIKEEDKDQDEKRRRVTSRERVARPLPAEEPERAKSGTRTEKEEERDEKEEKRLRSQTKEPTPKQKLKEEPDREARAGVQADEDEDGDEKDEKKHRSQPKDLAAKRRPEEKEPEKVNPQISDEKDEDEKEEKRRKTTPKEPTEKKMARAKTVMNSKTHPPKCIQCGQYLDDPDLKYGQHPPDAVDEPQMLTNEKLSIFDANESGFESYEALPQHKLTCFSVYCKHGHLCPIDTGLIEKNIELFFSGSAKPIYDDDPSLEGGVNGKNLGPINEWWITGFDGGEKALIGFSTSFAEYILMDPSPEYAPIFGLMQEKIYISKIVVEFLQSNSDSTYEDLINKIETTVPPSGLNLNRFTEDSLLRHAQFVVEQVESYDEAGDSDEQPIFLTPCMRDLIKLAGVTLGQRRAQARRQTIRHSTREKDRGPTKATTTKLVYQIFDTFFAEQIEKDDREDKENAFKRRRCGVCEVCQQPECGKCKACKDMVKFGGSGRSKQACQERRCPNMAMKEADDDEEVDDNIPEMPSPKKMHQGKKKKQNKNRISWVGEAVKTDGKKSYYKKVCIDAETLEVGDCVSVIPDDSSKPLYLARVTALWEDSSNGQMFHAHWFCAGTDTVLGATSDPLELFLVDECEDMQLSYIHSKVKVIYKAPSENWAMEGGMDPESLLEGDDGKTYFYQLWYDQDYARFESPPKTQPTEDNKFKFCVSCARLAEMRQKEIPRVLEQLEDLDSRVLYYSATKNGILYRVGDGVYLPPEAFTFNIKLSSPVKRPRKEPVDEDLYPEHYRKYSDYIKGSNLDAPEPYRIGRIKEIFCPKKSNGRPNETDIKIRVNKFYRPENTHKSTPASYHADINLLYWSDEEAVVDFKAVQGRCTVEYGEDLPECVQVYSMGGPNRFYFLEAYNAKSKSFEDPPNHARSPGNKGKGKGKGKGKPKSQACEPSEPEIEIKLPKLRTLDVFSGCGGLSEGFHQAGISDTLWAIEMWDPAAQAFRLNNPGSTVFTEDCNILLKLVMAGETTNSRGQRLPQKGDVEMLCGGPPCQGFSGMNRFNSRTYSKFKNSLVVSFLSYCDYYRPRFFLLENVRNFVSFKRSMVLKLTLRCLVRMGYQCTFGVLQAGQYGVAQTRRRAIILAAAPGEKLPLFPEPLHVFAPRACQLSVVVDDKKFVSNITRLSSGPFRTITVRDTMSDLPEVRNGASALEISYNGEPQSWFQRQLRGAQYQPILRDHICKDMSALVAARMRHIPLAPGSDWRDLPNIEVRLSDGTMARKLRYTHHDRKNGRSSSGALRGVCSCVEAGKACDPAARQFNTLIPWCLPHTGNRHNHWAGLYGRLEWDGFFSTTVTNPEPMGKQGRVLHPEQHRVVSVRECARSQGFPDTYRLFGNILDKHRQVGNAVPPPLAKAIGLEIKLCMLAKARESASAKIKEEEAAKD
`C=C(Cl)[C@](Cl)(CBr)CC[C@@H](Br)C(C)(C)Cl`: the Activity stood at 1.25 µM. The same measure for `C=C(Cl)/C(=C\Br)CCC(Br)=C(C)C`: 1.65 µM; for `C=C[C@](Cl)(CBr)CC[C@@H](Br)C(C)(C)Cl`: 21.9 µM. The same measure for `C=C(Cl)/C(=C\Br)CCC(Br)C(C)(C)Cl` (centres undefined): 55 µM.
